Columns and labels:
CYP2C9 = molecular target: T1, CYP2C9 (Homo sapiens, UniProt P11712); assay: IC50 assessment using recombinant human CYPs (probe tolbutamide); format: in vitro ADME; settings: recombinant CYP 0.025 μM, tolbutamide 0.05 mg mL^−1, 37 °C, 30 min, n = 3; read-out: IC50 against CYP2C9
T1 construct: purchased IPHASE
Experimental: Figure 12 The inhibition curves for TNBG-5602 against cytochrome enzymes (mean ± SD, n = 3). TNBG-5602 (final concentrations of 0, 0.01, 0.1, 1.0, 10.0, and 100 μM) was incubated with recombinant cytochrome P450s (final concentration 0.025 μM) and the specific probe substates (final concentration 0.05 mg mL^−1) with NADPH to initiate the metabolic reaction. The incubations were carried out at 37 °C for 30 min with a total volume of 200 μL. The CYP isoforms tested were 2D6 (dextromethorphan), 2C9 (tolbutamide), and 3A4 (testosterone). […] The IC50 values were calculated using the GraphPad Prism statistical software (Version 8) by nonlinear regression analysis.
The LC-MS/MS instrument was the same as the system used to determine TNBG-5602. The mobile phase consisted of 0.1% formic acid, aqueous solution (Solvent A), and acetonitrile (Solvent B) at a flow rate of 0.3 mL min^−1. […]
For IC50 assessment, the inhibition curves were established by nonlinear regression analysis plotting the relative activity (y) versus the logarithm of the TNBG-5602 concentration (x). The inhibition curve and the half-maximal inhibitory concentration of TNBG-5602 against each CYP isoform were analyzed using the GraphPad Prism statistical software (version 8). […]

[1] = tested on: five human cancer cell lines; parameters: method as in PMID 35541052; settings: cited from earlier work
[2] = Pharmacokinetics in rats after a single intravenous administration
Experimental: Sample separation was carried out on a CSH C18 Column (3.0 × 75 mm, 1.7 μm). The mobile phase consisted of Eluent A (0.1% aqueous formic acid) and Eluent B (acetonitrile: methanol, 80:20, v/v) at a flow rate of 0.4 mL min^−1. […] The column temperature was set to 35 °C. The injection volume was 5 μL. The optimized spectrometric parameters were set as follows: a capillary voltage of 4 kV, gas temperature of 300 °C, gas flow rate of 5 L min^−1, nebulizer of 45 Psi, sheath gas temperature of 250 °C, and sheath gas flow rate of 10 L min^−1. The UPLC-MS/MS data were acquired and processed using the Mass Hunter MS Optimizer software (version B.07.00). Detection was performed under multiple reaction monitoring (MRM) mode with the positive-ion electrospray-ionization (ESI) mode.
For the pharmacokinetic analyses, five rats were administered at a dose of 4.8 mg kg^−1 body weight via the caudal vein.
The whole blood samples were immediately centrifuged at 13,000 rpm for 5 min upon collection, and the supernatants were stored at −80 °C until analysis.
Obtained plasma (50 μL) was thawed and spiked with 50 μL of the IS working solution (50 ng mL^−1). The mixture was deproteinized and extracted using 1 mL of acetonitrile by using a vortex for 2 min.

liver cancer cells = tested on: liver cancer cells; parameters: method as in PMID 31446646; settings: cited from earlier work
[3] = rats, i.v. 4.8 mg kg^−1, non-compartment model, mean, n = 5
[4] = rats, i.v. 4.8 mg kg^−1, two-compartment model, mean, n = 5

T1 sequence (P11712 whole entry): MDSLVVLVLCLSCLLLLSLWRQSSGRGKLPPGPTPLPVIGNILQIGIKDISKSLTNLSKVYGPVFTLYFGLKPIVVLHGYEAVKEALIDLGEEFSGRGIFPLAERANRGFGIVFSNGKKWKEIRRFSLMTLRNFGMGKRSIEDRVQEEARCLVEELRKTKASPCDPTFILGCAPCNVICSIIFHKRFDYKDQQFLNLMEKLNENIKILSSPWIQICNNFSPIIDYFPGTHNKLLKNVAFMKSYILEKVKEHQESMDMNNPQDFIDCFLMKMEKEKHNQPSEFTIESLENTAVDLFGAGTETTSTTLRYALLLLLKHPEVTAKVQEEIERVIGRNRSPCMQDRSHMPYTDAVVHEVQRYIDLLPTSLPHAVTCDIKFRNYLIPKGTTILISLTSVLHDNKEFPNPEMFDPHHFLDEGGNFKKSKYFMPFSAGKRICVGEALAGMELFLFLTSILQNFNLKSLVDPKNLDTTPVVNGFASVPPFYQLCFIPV

IC50 (CYP2C9): 9.63 µM | k el ([2]; rat, in vivo, iv, 4.8 mg/kg): 6.67e-05 s⁻¹ | half-life ([2]; rat, plasma, iv, 4.8 mg kg^−1, half-life, rats): ~12 h | Cmax ([2]; rat, plasma, iv, 4.8 mg/kg): 171 ng/mL | MRT inf ([2]; rat, plasma, iv, 4.8 mg/kg): 15.5 h | MRT last ([2]; rat, plasma, iv, 4.8 mg/kg): 7.13 h | Vd ([2]; rat, plasma, iv, 4.8 mg/kg): 20.2 L | clearance ([2]; rat, plasma, iv, 4.8 mg/kg, CL (clearance), rats, i.v. 4.8 mg kg^−1, two-compartment model, mean, n = 5): 22 mL/min | clearance ([2]; rat, plasma, iv, 4.8 mg/kg, CLt (total body clearance), rats, i.v. 4.8 mg kg^−1, non-compartment model, mean, n = 5): 19 mL/min | Tmax ([2]; rat, plasma, iv, 4.8 mg/kg, Tmax, rats, i.v. 4.8 mg kg^−1, non-compartment model, mean, n = 5): ≤ 5 min | half-life ([2]; rat, plasma, iv, 4.8 mg/kg, t1/2, rats, i.v. 4.8 mg kg^−1, non-compartment model, mean, n = 5): 11.6 h | half-life ([2]; rat, plasma, iv, 4.8 mg/kg, t1/2β (elimination half-life), rats, i.v. 4.8 mg kg^−1, two-compartment model, mean, n = 5): 11.8 h | AUC(0–t) [2, 3]: 45513 µg·min/L | AUC(0–∞) [2, 3]: 56248 µg·min/L | t1/2 [2, 3]: 11.56 h | A (zero-time intercept of the α distribution phase) [2, 4]: 127.2 µg/L | B (zero-time intercept of the elimination phase) [2, 4]: 57.6 µg/L | K12 (transfer rate constant central to peripheral compartment) [2, 4]: 0.028 min⁻¹ | K21 (transfer rate constant peripheral to central compartment) [2, 4]: 0.019 min⁻¹ | Vc (apparent volume of the central compartment) [2, 4]: 6.985 L | Vp (apparent volume of the peripheral compartment) [2, 4]: 13.2 L | t1/2α [2, 4]: 0.457 h | distribution volume of the peripheral compartment relative to the central compartment ([2]; rats, i.v., two-compartment model): 1.88 fold | in vivo clearance as % liver blood flow in rats ([2]; rats, i.v., liver blood flow ref 19): 200% | apparent volume of distribution relative to total body water in rats ([2]; rats, i.v., total body water ref 19): approximately 155 fold | apparent clearance rate from the central compartment to the peripheral compartment ([2]; rats, single i.v. administration): 0.028 ± 0.033 L/min
SMILES: CN(C)CCN1CC2c3ccccc3CCN2c2nc3ccccc3nc21 (stereo not shown) [TNBG-5602]
inhibitory activity against five human cancer cell lines [1]: strong inhibitory activity | inhibition of proliferation of liver cancer cells in vitro (liver cancer cells): effectively inhibited the proliferation
